From paper PMC9229263, “Pyrazolo[4,3-e]tetrazolo[1,5-b][1,2,4]triazine Sulfonamides as Novel Potential Anticancer Agents: Cytotoxic and Genotoxic Activities In Vitro” (Molecules, 2022)
Read-outs that look alike come from different tables or passages of the source.

Legend:
PC-3 [1] = conditions: cited from earlier work
HeLa [2] = test system: HeLa; design: method as in doi:10.26650/IstanbulJPharm.2020.0039, PMID 34200051; conditions: cited from earlier work
HCT 116 [3] = conditions: cited from earlier work
[4] = test system: HT-29 and DLD-1 cancer cells; design: method as in PMID 26089833; conditions: mice challenged with HT-29 and DLD-1 cancer cells, two weeks of treatment; cited from earlier work
PC-3 [5] = test: Comet assay, alkaline version (pH > 13), PC-3; format: cell-based, human; conditions: PC-3, 24 h, range over 0.5, 1 and 2 × IC50
Method: (§1) The alkaline version (pH > 13), as well as the neutral version (pH 9.0) of the comet assay, was performed on cancer cell lines according to the procedures described by Singh et al. with modifications. 12-well plates were seeded at a density of 1.2–1.5 × 10^5 cells per well. […] In addition, negative and positive controls (cells treated only with DMSO at <0.5% and with bleomycin at 20 µM, respectively) were included.
(§2) Following a 24 h incubation (5% CO2; 37 °C), the cells were trypsinized and transferred to Eppendorf tubes and centrifuged (10 min, 1400 rpm, 4 °C). The obtained pellet was resuspended in 100 µL of fresh PBS, mixed with 0.75% LMP agarose dissolved in PBS, and embedded onto microscope slides, previously precoated with 0.5% NMP agarose. The Trypan Blue dye exclusion test was used to determine the number of viable cells present in a cell suspension. […] The slides after agarose solidification were placed in a fresh, cold lysis buffer (pH 10, 1% Triton X-100, 2.5 M NaCl, 100 mM EDTA, 10 mM Tris) for 1 h (4 °C, in dark), which subsequently was replaced by electrophoretic solution (1 mM EDTA, 300 mM NaOH, pH > 13) for another 40 min. Afterward, electrophoresis was performed (25 min, 0.73 V/cm, 300 mA, 4 °C, in dark). Subsequently, the slides were neutralized with 0.4 M Tris, pH 7.5 (20 min, 4 °C, in dark) and washed 3× in distilled water. Eventually, slides were drained, stained with DAPI (1 μg/mL) for at least 1 h (4 °C), and analyzed with fluorescence microscope (Olympus, Tokyo, Japan).
(§3) A total number of 50 randomly selected images were analyzed in the commercially available software CaspLab. Two parallel experiments with aliquots of the same sample of cells were performed for a total of 100 cells. From the available parameters, the percentage of DNA in comet tail was selected as the most appropriate as being negatively associated with the level of DNA cross-links, as well as positively correlated with alkali-labile sites and the amount of DNA single-strand breaks (SSBs) and double-strand breaks (DSBs) (alkaline version of the comet assay). […]

BxPC-3 [6] = test: MTT assay, BxPC-3; format: cell-based; conditions: Homo sapiens; BxPC-3, MTT, 72 h; 95% confidence intervals in parentheses
Excerpt: (§4) In order to characterize the effect of tested compounds on cell viability, the MTT test was used. MTT microplate assay enables evaluation of cell viability via measuring cell metabolic activity represented as an ability to incorporate and reduce yellow tetrazolium salt to the violet-blue formazan compounds via the activity of mitochondrial succinate dehydrogenase enzyme. The number of metabolically active cells positively correlates with the amount of reduced tetrazolium salt. The absorbance of formazan solution obtained after solubilizing formazan crystals in an organic solvent, e.g., DMSO, can be measured spectrophotometrically at 570 nm.
(§5) The suspension of 8–10 × 10^3 (adherent cells) and 8 × 10^4 (PBMCs) cells in 200 µL and 100 µL medium, respectively, was transferred to each well of 96-well microplate. Plates were incubated for 24 h in controlled conditions (5% CO2; 37 °C) to ensure cell growth. Subsequently, the medium was replaced, and the cells were exposed to tested compounds in a wide range of concentrations (0.1–6 µM). Before investigated compounds were diluted in a culture medium, they had been diluted in DMSO in the final concentration of <0.5% v/v, which were not toxic to the cells. The experimental design included blanks (wells without cells) as well as non-treated control cells. Following the 72 h incubation period, a volume of 20 µL of fresh tetrazolium salt solution (5 mg/mL in PBS) was added per well. In the case of adherent cancer cells, after 3 h of incubation (conditions as previously), the solutions were replaced by 100 µL of DMSO to dissolve formazan complexes. In contrast, the solutions in plates containing PBMCs were not removed and a 100 µL mixture of 50% DMF and 20% SDS was added to each well for the next 24 h. Absorbance was measured via spectrophotometer (microplate reader Power Wave XS BioTek Instruments, Inc., Winooski, VT, USA) at 570 nm. […]

HT-29 and DLD-1 = conditions: HT-29 and DLD-1, range; cited from earlier work
PBMCs = test: MTT assay, PBMCs (normal); format: cell-based; conditions: Homo sapiens, PBMC, PBMCs normal cells, 72 h, 95% confidence intervals in parentheses
Excerpt: Human PBMCs were isolated from the leucocyte buffy coat obtained from the blood of healthy and nonsmoking volunteers (aged 18–65). Leukocyte buffy coats were collected from Blood Bank in Lodz, Poland. The use of the leukocyte buffy coat in the investigation of the effect of novel tricyclic pyrazolo[4,3-e][1,2,4]triazine derivatives on human PBMCs was approved by the Bioethics Committee for Scientific Investigation, University of Lodz (agreement no. 8/KBBN-UŁ/I//2019). Isolation of PBMCs was performed by density gradient of Lymphosep (25 min, 1400 rpm, RT). PBMCs were cultured in RPMI-1640 medium, supplemented with 1% (v/v) penicillin–streptomycin solution, 1.5% PHA and 10% (v/v) FBS.
as §4
(§6) The suspension of 8–10 × 10^3 (adherent cells) and 8 × 10^4 (PBMCs) cells in 200 µL and 100 µL medium, respectively, was transferred to each well of 96-well microplate. Plates were incubated for 24 h in controlled conditions (5% CO2; 37 °C) to ensure cell growth. Subsequently, the medium was replaced, and the cells were exposed to tested compounds in a wide range of concentrations (0.1–6 µM). Before investigated compounds were diluted in a culture medium, they had been diluted in DMSO in the final concentration of <0.5% v/v, which were not toxic to the cells. […] Absorbance was measured via spectrophotometer (microplate reader Power Wave XS BioTek Instruments, Inc., Winooski, VT, USA) at 570 nm. […]

PC-3 [7] = test: MTT assay, PC-3; format: cell-based; conditions: Homo sapiens; PC-3, MTT, 72 h; 95% confidence intervals in parentheses
Excerpt: as §4, §5

[8] = test system: HeLa, HCT 116, PC-3, BxPC-3, Hs27, PBMCs; test: MTT assay, summary over all tested cells; format: cell-based; conditions: Homo sapiens; HCT 116, HeLa, PC-3 and BxPC-3, MTT; read-out: IC50 range in cancer cell lines
Excerpt: as §4, §6

HeLa [9] = test: MTT assay, HeLa; format: cell-based; conditions: Homo sapiens, 72 h, 95% confidence intervals in parentheses
Excerpt: as §4, §5

tumor development = test system: tumor development; design: method as in PMID 31371419; conditions: zebrafish embryo xenograft model; cited from earlier work
HCT 116 [10] = test: MTT assay, HCT 116; format: cell-based; conditions: Homo sapiens; HCT 116, MTT, 72 h; 95% confidence intervals in parentheses
Excerpt: as §4, §5

Hs27 = test: MTT assay, Hs27 fibroblasts (normal); format: cell-based; conditions: Homo sapiens, 72 h, 95% confidence intervals in parentheses
Excerpt: as §4, §5

HCT 116 [11] = test: Comet assay, alkaline version (pH > 13), HCT 116; format: cell-based, human; conditions: HCT 116, 24 h; for Alkaline Version, median percentage of DNA in comet tail: compound at 2 × IC50, interquartile range in parentheses
Method: as §1, §2, §3

HCT 116 [12] = test: Immunocytochemical detection of γ-H2AX; format: cell-based, human; conditions: HCT 116, 24 h, highest concentration used (2 × IC50)
Method: Immunocytochemical detection of the phosphorylated form of the histone protein component H2AX (γ-H2AX) is a well-known approach to estimate DNA DSB levels in both in vitro [47, 53, 66] and in vivo [67, 68] studies. HCT 116 cells were grown on coverslips in 12-well plates at a density of 1.2 × 10^5 per well for 24 h (5% CO2; 37 °C). Subsequently, the cells were exposed to investigated compounds in two different concentrations (IC50 and 2 × IC50 values with respect to MTT results), by replacing the medium with an appropriate compound concentration. Negative control (cells treated only with DMSO at <0.5%) was also included.
The cells were fixed with 4% paraformaldehyde (10 min), washed twice with PBS, and permeabilized with 0.5% (v/v) Triton X-100/PBS solution (10 min). Afterward, the cells were incubated with a blocking solution containing 1.5% goat serum, and 0.1% Triton in PBS for 10 min and incubated with the primary antibody, anti-gamma-H2AX (phospho-Ser139) (Abcam, Cambridge, UK; 1:100) for 1 h. […]
The slides were examined using a fluorescence microscope (Olympus) at 40× magnification. […] A total number of 150 randomly selected cells from digital images per sample were measured. The data were exported and analyzed in GraphPad Prism 8.0 software system (GraphPad Prism Software Inc., San Diego, CA, USA).

BxPC-3 [13] = test system: BxPC-3; design: method as in PMID 20021699, PMID 24172061; conditions: cited from earlier work

| SMILES | IC50 (PC-3 [1]) | IC50 (HCT 116 [3]) | % of DNA in comet tail, alkaline comet assay (PC-3 [5]) | IC50 (BxPC-3 [6]) | IC50 (HT-29 and DLD-1) | IC50 (PBMCs) | IC50 (PC-3 [7]) | IC50 (HeLa [9]) | IC50 (HCT 116 [10]) | IC50 (Hs27) | also measured |
| --- | --- | --- | --- | --- | --- | --- | --- | --- | --- | --- | --- |
| N.N.[Cl][Pt][Cl] [cisplatin] | 9 µM | 9 µM |  |  |  |  |  |  |  |  | IC50 (HeLa [2]): 12.3 µM |
| COC(=O)C1CC(O)CN1S(=O)(=O)c1ccc(-n2nc(C)c3nc4nnnn4nc32)cc1 (centres unmarked) [MM129] |  |  | 7.4–21.8% | 260 nM | 3100 to 3900 nM | 1110 nM | 360 nM | 900 nM | 600 nM | 1150 nM | tumor mass and volume [4]: significant reduction in tumor mass and volume; IC50 [8]: 130 to 900 nM; tumor development (tumor development): inhibition of tumor development |
| Cc1nn(-c2ccc(S(=O)(=O)NC(CO)CC(C)C)cc2)c2nn3nnnc3nc12 (centres unmarked) [MM124, reference compound] |  |  |  |  | 160 to 1540 nM |  |  |  |  |  |  |
| CCc1c2c(nc3ccc(OC(=O)N4CCC(N5CCCCC5)CC4)cc13)-c1cc3c(c(=O)n1C2)COC(=O)[C@]3(O)CC [irinotecan] | 2.1 µM | 2.6 µM |  |  |  |  |  |  |  |  |  |
| Cc1nn(-c2ccc(S(=O)(=O)N[C@@H](C)CO)cc2)c2nn3nnnc3nc12 [MM130] |  |  | 7.4–21.8% | 170 nM |  | 770 nM | 220 nM | 590 nM | 440 nM | 810 nM | Alkaline Version, median percentage of DNA in comet tail (HCT 116 [11]): 25.6%; melting point: 197 to 202 °C; median of the number of γ-H2AX foci per nucleus (HCT 116 [12]): 12 foci per nucleus |
| Cc1nn(-c2ccc(S(=O)(=O)N[C@H](C)CO)cc2)c2nn3nnnc3nc12 [MM131] |  |  | 19.5–40.3% | 130 nM | 3100 to 3900 nM | 620 nM | 170 nM | 410 nM | 390 nM | 620 nM | Alkaline Version, median percentage of DNA in comet tail (HCT 116 [11]): 38.8%; % of DNA in comet tail, alkaline comet assay (HCT 116 [11]; range over 0.5, 1 and 2 × IC50): 8–38.8%; IC50 [8]: 130 to 900 nM; median of the number of γ-H2AX foci per nucleus (HCT 116 [12]): 15 foci per nucleus |
| O=c1[nH]cc(F)c(=O)[nH]1 [5-fluorouracil] |  | 3.2 µM |  |  |  |  |  |  |  |  | IC50 (BxPC-3 [13]): 96.1 µM |
| O=C1[O][Pt]2([NH][C@@H]3CCCC[C@H]3[NH]2)[O]C1=O [oxaliplatin] | 100 µM | 72 µM |  |  |  |  |  |  |  |  |  |
| Cc1nn(-c2ccc(S(=O)(=O)N3CCN(C)CC3)cc2)c2nn3nnnc3nc12 [MM137, reference compound] |  |  |  |  | 160 to 1540 nM |  |  |  |  |  |  |
